Assay results: patent publication US8426429B2, “2-amino-quinazoline derivatives useful as inhibitors of β-secretase (BACE)” (Jansssen Pharmaceutica N.V., priority 2004, dated 2013)

Target: T1, β-secretase (BACE) (Homo sapiens, UniProt P56817)
T1 construct: purchased Panvera
Assay: BACE FS1 % Inhibition Assay
Format: biochemical
Outline: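 Percent inhibition per compound concentration was referenced to vehicle-treated enzyme and no-enzyme wells. Enzyme at a 4 μg/mL working stock plus compound was mixed for 20 min at room temperature before the FS1 substrate (300 μg/mL working stock) was added for a 1 h room-temperature reaction.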

T1 sequence (P56817 46-501): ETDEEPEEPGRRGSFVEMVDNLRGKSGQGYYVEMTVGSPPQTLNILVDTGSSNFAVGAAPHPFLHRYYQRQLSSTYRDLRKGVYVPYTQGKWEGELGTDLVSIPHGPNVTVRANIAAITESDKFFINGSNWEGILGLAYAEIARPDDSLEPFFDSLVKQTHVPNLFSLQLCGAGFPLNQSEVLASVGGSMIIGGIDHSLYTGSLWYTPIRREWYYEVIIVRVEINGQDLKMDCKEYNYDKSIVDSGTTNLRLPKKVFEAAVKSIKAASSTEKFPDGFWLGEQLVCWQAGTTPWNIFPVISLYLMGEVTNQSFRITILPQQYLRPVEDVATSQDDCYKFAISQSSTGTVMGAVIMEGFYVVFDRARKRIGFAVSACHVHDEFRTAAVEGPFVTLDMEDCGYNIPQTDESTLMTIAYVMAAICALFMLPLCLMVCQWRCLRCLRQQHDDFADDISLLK

Row | Structure (SMILES) | % Inhibition (FS) (0.3 μM test compound) | % Inhibition (FS) (1 μM test compound) | % Inhibition (FS) (3 μM test compound) | further results
1 | COc1ccccc1-c1ccc2c(c1)CN([C@@H](CCC(=O)N(C)Cc1cc(-c3ccccc3)on1)C1CCCCC1)C(N)=N2 [Compound 719] | – | – | – | % Inhibition (FS) (0.3 μM compound, FS1 substrate): 31%; % Inhibition (FS) (1 μM compound, FS1 substrate): <30%; % Inhibition (FS) (3 μM compound, FS1 substrate): 81%
2 | Cc1cc(C)cc(Sc2ccc3c(c2)CN(Cc2cccc(C(=O)N(C)C4CCCCC4)c2)C(N)=N3)c1 [Compound 409] | <30% | <30% | 72% | –
3 | NC1=Nc2ccc(-c3ccc4ccccc4c3)cc2CN1CCNC(=O)C1CCC1 [Compound 663] | – | – | – | % Inhibition (FS) (0.3 μM compound, FS1 substrate): <30%; % Inhibition (FS) (1 μM compound, FS1 substrate): <30%; % Inhibition (FS) (3 μM compound, FS1 substrate): <30%
4 | CN(C(=O)CCC(C1CCCCC1)N1Cc2cc(Oc3ccccc3)ccc2N=C1N)c1ccc(C(=O)O)cc1 (stereo not shown) [Compound 766] | – | – | – | % Inhibition (FS) (0.3 μM compound, FS1 substrate): <30%; % Inhibition (FS) (1 μM compound, FS1 substrate): <30%; % Inhibition (FS) (3 μM compound, FS1 substrate): <30%
5 | CC(C)c1ccc(Sc2ccc3c(c2)CN(Cc2cccc(C(=O)N(C)C4CCCCC4)c2)C(N)=N3)cc1 [Compound 407] | <30% | <30% | 48% | –
6 | NC1=Nc2ccc(-c3ccccc3)cc2CN1CCNC(=O)C1CCC(C(F)(F)F)CC1 (stereo not shown) [Compound 701] | – | – | – | % Inhibition (FS) (0.3 μM compound, FS1 substrate): <30%; % Inhibition (FS) (1 μM compound, FS1 substrate): <30%; % Inhibition (FS) (3 μM compound, FS1 substrate): 54%
7 | C[C@@H](CNC(=O)C1CCCCC1)N1Cc2cc(Oc3ccccc3)ccc2N=C1N [Compound 486] | <30% | <30% | <30% | –
8 | CN(C(=O)CCC(CO)N1Cc2cc(Oc3ccccc3)ccc2N=C1N)C1CCCCC1 (stereo not shown) [Compound 557] | <30% | <30% | <30% | –
9 | CCCC(CCC)C(=O)N1CCCC(N2Cc3cc(Oc4ccccc4)ccc3N=C2N)C1 (stereo not shown) [Compound 612] | <30% | 34% | <30% | –
10 | COc1ccc(F)cc1-c1ccc2c(c1)CN(CCNC(=O)C1CCCCC1)C(N)=N2 [Compound 631] | <30% | <30% | 48% | –
11 | CSc1ccc(Sc2ccc3c(c2)CN(Cc2cccc(C(=O)N(C)C4CCCCC4)c2)C(N)=N3)cc1 [Compound 413] | <30% | <30% | 53% | –
12 | NC1=Nc2ccc(Oc3ccccc3)cc2CN1C1CCCN(C(=O)C2CCCCC2)C1 (stereo not shown) [Compound 611] | <30% | 36% | <30% | –
13 | CC(=O)Nc1ccccc1-c1ccc2c(c1)CN(CCNC(=O)C1CCCCC1)C(N)=N2 [Compound 541] | <30% | <30% | <30% | –
14 | NC1=Nc2ccc(Oc3ccccc3)cc2CN1Cc1ocnc1C(=O)NC1CCCCC1 [Compound 640] | <30% | <30% | <30% | –
15 | CC(C)[C@@H](CCC(=O)N(C)C1CCCCC1)N1Cc2cc(Oc3ccccc3)ccc2N=C1N [Compound 444] | <30% | <30% | 30% | –
16 | CCCC(CCCC(=O)N(C)C1CCCCC1)N1Cc2cc(Oc3ccccc3)ccc2N=C1N (stereo not shown) [Compound 90] | – | – | 106% | % Inhibition (FS) (10 μM test compound): 124%
17 | CCCC=Cc1ccc2c(c1)CN(CCNC(=O)CCC)C(N)=N2 [Compound 571] | <30% | <30% | <30% | –
18 | COc1ccc(C)cc1-c1ccc2c(c1)CN(CCNC(=O)C1CCCCC1)C(N)=N2 [Compound 630] | <30% | <30% | 48% | –
19 | NC1=Nc2ccc(Oc3ccccc3)cc2CN1C(c1ccccc1)c1cccc(C(=O)N(C2CCCCC2)C2CCCCC2)c1 (stereo not shown) [Compound 132] | – | – | 54% | % Inhibition (FS) (10 μM test compound): 118%
20 | NC1=Nc2ccc(-c3ccccc3Cl)cc2CN1CCNC(=O)C1CCCC1 [Compound 650] | 72% | 94% | 112% | –
21 | CC(C)(C)OC(=O)NCc1cccc(CN2Cc3cc(Oc4ccccc4)ccc3N=C2N)c1 [Compound 315] | <30% | <30% | 33% | –
22 | CC(C)[C@@H](CNC(=O)C1CCCCC1)N1Cc2cc(Oc3ccccc3)ccc2N=C1N [Compound 528] | <30% | <30% | 41% | –
23 | CN(C(=O)c1cccc(CN2Cc3cc(Sc4cccc5ccccc45)ccc3N=C2N)c1)C1CCCCC1 [Compound 414] | <30% | <30% | 27% | –
24 | CC(C)(C)OC(=O)N1CCC(CN2Cc3cc(Oc4ccccc4)ccc3N=C2N)CC1 [Compound 509] | <30% | <30% | 41% | –

Row | Structure (SMILES) | % Inhibition (FS) (0.3 μM test compound) | % Inhibition (FS) (1 μM test compound) | % Inhibition (FS) (3 μM test compound) | further results
25 | Cc1cc(C)cc(Oc2ccc3c(c2)CN(Cc2cccc(C(=O)N(C)C4CCCCC4)c2)C(N)=N3)c1 [Compound 228] | <30% | 49% | 40% | –
26 | CN(C(=O)c1cccc(CN2Cc3cc(Oc4cccnc4)ccc3N=C2N)c1)C1CCCCC1 [Compound 230] | <30% | 33% | <30% | –
27 | CC(=O)Nc1ccc(C(=O)NCCN2Cc3cc(-c4ccccc4)ccc3N=C2N)cc1 [Compound 591] | <30% | <30% | <30% | –
28 | CN(Cc1cc(-c2ccccc2)on1)C(=O)CC[C@@H](C1CCCCC1)N1Cc2cc(-c3ccccc3F)ccc2N=C1N [Compound 724] | – | – | – | % Inhibition (FS) (0.3 μM compound, FS1 substrate): 38%; % Inhibition (FS) (1 μM compound, FS1 substrate): <30%; % Inhibition (FS) (3 μM compound, FS1 substrate): 65%
29 | CN(C)c1ccc(C(=O)NCCN2Cc3cc(Oc4ccccc4)ccc3N=C2N)cc1 [Compound 189] | <30% | <30% | <30% | –
30 | NC1=Nc2ccc(Oc3ccccc3)cc2CN1Cc1cccc(C(=O)N2CCCCC2)c1 [Compound 443] | <30% | 39% | 67% | –
31 | CCOC(=O)C1CCC(N(C)C(=O)CCC(C2CCCCC2)N2Cc3cc(Oc4ccccc4)ccc3N=C2N)CC1 (stereo not shown) [Compound 737] | – | – | – | % Inhibition (FS) (0.3 μM compound, FS1 substrate, 0.3 µM): 22%; % Inhibition (FS) (1 μM compound, FS1 substrate, 1 µM): 34%; % Inhibition (FS) (3 μM compound, FS1 substrate, 3 µM): 97%
32 | NC1=Nc2ccc(Oc3ccccc3)cc2CN1CCC(=O)N(C1CCCCC1)C1CCCCC1 [Compound 180] | <30% | <30% | 77% | –
33 | COc1ccc(Sc2ccc3c(c2)CN(Cc2cccc(C(=O)N(C)C4CCCCC4)c2)C(N)=N3)cc1OC [Compound 411] | <30% | <30% | 55% | –
34 | CCCCC(CC)C(=O)NCCN1Cc2cc(-c3ccccc3Cl)ccc2N=C1N (stereo not shown) [Compound 655] | 45% | 79% | 104% | –
35 | CC(C)C(CC(=O)NC1C2CC3CC(C2)CC1C3)N1Cc2cc(Oc3ccccc3)ccc2N=C1N (stereo not shown) [Compound 402] | <30% | 53% | 99% | –
36 | COc1ccccc1-c1ccc2c(c1)CN(CCNC(=O)C1CCC(C(F)(F)F)CC1)C(N)=N2 (stereo not shown) [Compound 698] | – | – | – | % Inhibition (FS) (0.3 μM compound, FS1 substrate): <30%; % Inhibition (FS) (1 μM compound, FS1 substrate): <30%; % Inhibition (FS) (3 μM compound, FS1 substrate): 64%
37 | CN(C(=O)c1cccc(CN2Cc3cc(Oc4ccccc4C4CCCC4)ccc3N=C2N)c1)C1CCCCC1 [Compound 512] | <30% | <30% | 51% | –
38 | CC(C)C(CC(=O)N(C(C)C)C1CCCCC1)N1Cc2cc(Oc3ccccc3)ccc2N=C1N (stereo not shown) [Compound 202] | <30% | <30% | <30% | –
39 | COc1cccc(C(=O)NCCN2Cc3cc(Oc4ccccc4)ccc3N=C2N)c1 [Compound 217] | <30% | <30% | 56% | –
40 | COC1CCCC(C(=O)NCCN2Cc3cc(-c4ccccc4C)ccc3N=C2N)C1 (stereo not shown) [Compound 696] | – | – | – | % Inhibition (FS) (0.3 μM compound, FS1 substrate): <30%; % Inhibition (FS) (1 μM compound, FS1 substrate): 72%
41 | CC(C)(C)C(=O)NCCN1Cc2cc(-c3ccc4ccccc4c3)ccc2N=C1N [Compound 667] | – | – | – | % Inhibition (FS) (0.3 μM compound, FS1 substrate): 33%; % Inhibition (FS) (1 μM compound, FS1 substrate): <30%; % Inhibition (FS) (3 μM compound, FS1 substrate): <30%
42 | Cc1cc(C(=O)NCCN2Cc3cc(-c4cccc(CO)c4)ccc3N=C2N)c(C)o1 [Compound 589] | <30% | <30% | <30% | –
43 | NC1=Nc2ccc(-c3ccccc3Cl)cc2CN1CCNC(=O)C1CCOCC1 [Compound 689] | – | – | – | % Inhibition (FS) (0.3 μM compound, FS1 substrate): 33%; % Inhibition (FS) (1 μM compound, FS1 substrate): 82%
44 | NC1=Nc2ccc(-c3cnc4ccccc4c3)cc2CN1CCNC(=O)C12CC3CC(CC(C3)C1)C2 [Compound 672] | – | – | – | % Inhibition (FS) (0.3 μM compound, FS1 substrate): <30%; % Inhibition (FS) (1 μM compound, FS1 substrate): <30%; % Inhibition (FS) (3 μM compound, FS1 substrate): <30%
45 | CN(C(=O)c1cccc(CN2Cc3cc(-c4ccc5[nH]ccc5c4)ccc3N=C2N)c1)C1CCCCC1 [Compound 175] | <30% | <30% | 37% | –
46 | CN(C(=O)CC[C@@H](C1CCCCC1)N1Cc2ccc(Oc3ccccc3)cc2N=C1N)C1CCCCC1 [Compound 754] | – | – | – | % Inhibition (FS) (0.3 μM compound, FS1 substrate): 8%; % Inhibition (FS) (1 μM compound, FS1 substrate): 35%; % Inhibition (FS) (3 μM compound, FS1 substrate): 89%
47 | CN(C(=O)c1cccc(CN2Cc3cc(-c4cccc(-c5ccccc5)c4)ccc3N=C2N)c1)C1CCCCC1 [Compound 171] | <30% | 31% | 42% | –
48 | CCCCc1ccc(C(=O)NCCN2Cc3cc(Oc4ccccc4)ccc3N=C2N)cc1 [Compound 157] | – | – | <30% | % Inhibition (FS) (10 μM test compound): 50%
